Experimental data as given in patent US8759333B2, “Di-azetidinyl diamide as monoacylglycerol lipase inhibitors” (Janssen Pharmaceutica, NV, priority 2010, dated 2014).
Residue numbers refer to the chain shown, from its start.

Columns and labels:
[1] = target: T1, wild type MGL (wt-MGLL 6H-11-313) (Homo sapiens, UniProt Q99685); assay: MGL Enzyme Activity Assay, purified wild type MGL, 4MU-B substrate; type: biochemical; conditions: wild type MGL 5 nM, 4MU-B 10 μM, 37° C.; read-out: MGL wild type inh IC50
T1 construct: purified wild type MGL (wt-MGLL 6H-11-313); 6H (hexahistidine) (N)
T1 sequence (Q99685 1-303): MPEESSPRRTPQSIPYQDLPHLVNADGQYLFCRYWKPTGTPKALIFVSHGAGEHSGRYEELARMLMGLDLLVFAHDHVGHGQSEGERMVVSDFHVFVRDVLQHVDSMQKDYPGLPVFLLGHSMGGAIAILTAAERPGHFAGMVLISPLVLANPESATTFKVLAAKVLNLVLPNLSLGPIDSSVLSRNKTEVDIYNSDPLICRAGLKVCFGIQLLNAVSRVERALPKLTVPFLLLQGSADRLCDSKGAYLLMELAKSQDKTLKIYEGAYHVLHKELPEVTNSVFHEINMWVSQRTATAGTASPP
Protocol: All rate-based assays were performed in black 384-well polypropylene PCR microplates (Abgene) in a total volume of 30 μL. […] Final compound concentrations ranged from 17 to 0.0003 μM.
The IC50 values for the following compounds were determined using Microsoft Office Excel from a fit of the equation to the concentration-response plot of the fractional activity as a function of inhibitor concentration.

[2] = target: T2, mutant MGL (mut-MGLL 11-313 L179S L186S) (Homo sapiens, UniProt Q99685, L169S/L176S); assay: MGL Enzyme Activity Assay, purified mutant MGL, 4MU-B substrate; type: biochemical; conditions: mutant MGL 5 nM, 4MU-B 10 μM, 37° C.; read-out: MGL mutant inh IC50
T2 construct: purified mutant MGL (mut-MGLL 11-313 L179S L186S)
T2 sequence (Q99685 1-303 L169S/L176S): T1 sequence (Q99685 1-303) with L169S, L176S
How it was run: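 Purified mutant MGL (5 nM final) with 10 μM 4MU-B in 20 mM PIPES pH 7.0, 150 mM NaCl, 0.001% Tween 20; compounds 17 to 0.0003 μM final. Fluorescence (ex 335/em 440 nm) followed 5 min at 37 °C; IC50 from fit of fractional activity versus inhibitor concentration.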

mutant MGL = target: T3, mutant MGL (Homo sapiens, UniProt Q99685, L169S/L176S); assay: MGL ThermoFluor Assay - Mutant; type: binding; conditions: 0.07 mg/ml mutant MGL, 100 μM ANS, pH 7.0
T3 construct: purified mutant MGL (mut-MGLL 11-313 L179S L186S)
T3 sequence (Q99685 1-303 L169S/L176S): T1 sequence (Q99685 1-303) with L169S, L176S
How it was run: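 Thermal-shift binding with 0.07 mg/ml L169S/L176S mutant MGL, 100 μM 1,8-ANS, 200 mM NaCl, 0.001% Tween-20, 50 mM PIPES pH 7.0, heated 40–90 °C at 1 °C/min.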

MGL = target: T4, MGL (Rattus norvegicus, UniProt Q8R431); assay: 2-AG Accumulation Assay in rat brain homogenate; type: biochemical; conditions: percent of vehicle; for activity at 1 µM: compound @1 µM, read-out: Rat Brain 2AG % VehCntrl (%) @1 µM; for activity at 10 µM: compound @10 µM, read-out: Rat Brain 2AG % VehCntrl (%) @10 µM
T4 construct: one g rat brain was homogenized using a Polytron homogenizer; from tissue; host or cells: rat brain homogenate
T4 sequence (Q8R431 1-303): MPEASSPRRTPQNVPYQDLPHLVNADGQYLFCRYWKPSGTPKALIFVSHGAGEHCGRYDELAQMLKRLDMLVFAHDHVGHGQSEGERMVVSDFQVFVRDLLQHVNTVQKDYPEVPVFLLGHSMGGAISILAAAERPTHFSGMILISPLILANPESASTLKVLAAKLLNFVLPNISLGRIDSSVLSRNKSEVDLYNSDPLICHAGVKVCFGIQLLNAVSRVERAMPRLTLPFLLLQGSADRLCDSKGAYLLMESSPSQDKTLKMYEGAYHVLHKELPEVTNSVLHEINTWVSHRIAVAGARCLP

Row | Compound | IC50 [1] [nM] | IC50 [2] [nM] | Kd (mutant MGL) [nM] | activity at 1 µM (MGL) [%] | activity at 10 µM (MGL) [%]
1 | O=C(NC1CN(C2CN(C(=O)c3ccc(-c4ccc(C(F)(F)F)cc4)cc3)C2)C1)c1cscn1 [Cpd 14, N-(1′-{[4′-(Trifluoromethyl)biphenyl-4-yl]carbonyl}-1,3′-biazetidin-3-yl)-1,3-thiazole-4-carboxamide] | 9 | 27 | 86 | 187 | –
2 | O=C(NC1CN(C2CN(C(=O)c3cc4ccc(C(F)(F)F)cc4s3)C2)C1)c1cscn1 [Cpd 49, N-(1′-{[6-(Trifluoromethyl)-1-benzothiophen-2-yl]carbonyl}-1,3′-biazetidin-3-yl)-1,3-thiazole-4-carboxamide] | 14 | < 5 | 31.9 | 167 | –
3 | O=C(NC1CN(C2CN(C(=O)c3sc4cc(C(F)(F)F)ccc4c3Cl)C2)C1)c1nccs1 [Cpd 50, N-(1′-{[3-Chloro-6-(trifluoromethyl)-1-benzothiophen-2-yl]carbonyl}-1,3′-biazetidin-3-yl)-1,3-thiazole-2-carboxamide] | < 5 | < 5 | 0.7 | 460 | –
4 | O=C(NC1CN(C2CN(C(=O)c3sc4cc(C(F)(F)F)ccc4c3Cl)C2)C1)c1cscn1 [Cpd 51, N-(1′-{[3-Chloro-6-(trifluoromethyl)-1-benzothiophen-2-yl]carbonyl}-1,3′-biazetidin-3-yl)-1,3-thiazole-4-carboxamide] | < 5 | < 5 | 2.2 | 477 | –
5 | O=C(c1sc2cc(-c3ccccc3)ccc2c1Cl)N1CC(N2CC(N3Cc4ccccc4C3=O)C2)C1 [Cpd 68, 2-{1′-[(3-Chloro-6-phenyl-1-benzothiophen-2-yl)carbonyl]-1,3′-biazetidin-3-yl}-2,3-dihydro-1H-isoindol-1-one] | < 5 | 6 | 3.3 | 433 | –
6 | CS(=O)(=O)c1cccc(-c2ccc3cc(C(=O)N4CC(N5CC(N6Cc7ccccc7C6=O)C5)C4)sc3c2)c1 [Cpd 72, 2-[1′-({6-[3-(Methylsulfonyl)phenyl]-1-benzothiophen-2-yl}carbonyl)-1,3′-biazetidin-3-yl]-2,3-dihydro-1H-isoindol-1-one] | < 5 | 9 | 33.2 | 781 | –
7 | O=C(c1sc2cc(Br)ccc2c1Cl)N1CC(N2CC(N3Cc4ccccc4C3=O)C2)C1 [Cpd 73, 2-{1′-[(6-Bromo-3-chloro-1-benzothiophen-2-yl)carbonyl]-1,3′-biazetidin-3-yl}-2,3-dihydro-1H-isoindol-1-one] | < 5 | 12 | 31.3 | 295 | –
8 | O=C(c1sc2cc(-c3ccccc3)ccc2c1-c1ccccc1)N1CC(N2CC(N3Cc4ccccc4C3=O)C2)C1 [Cpd 74, 2-{1′-[(3,6-Diphenyl-1-benzothiophen-2-yl)carbonyl]-1,3′-biazetidin-3-yl}-2,3-dihydro-1H-isoindol-1-one] | < 5 | 12 | 1.3 | 323 | –
9 | CS(=O)(=O)c1cccc(-c2ccc3sc(C(=O)N4CC(N5CC(N6Cc7ccccc7C6=O)C5)C4)cc3c2)c1 [Cpd 82, 2-[1′-({5-[3-(Methylsulfonyl)phenyl]-1-benzothiophen-2-yl}carbonyl)-1,3′-biazetidin-3-yl]-2,3-dihydro-1H-isoindol-1-one] | 16 | 22 | 105 | 490 | –
10 | Cc1c(C(=O)N2CC(N3CC(N4Cc5scnc5C4=O)C3)C2)sc2cc(C(F)(F)F)ccc12 [Cpd 103, 5-(1′-{[3-Methyl-6-(trifluoromethyl)-1-benzothiophen-2-yl]carbonyl}-1,3′-biazetidin-3-yl)-5,6-dihydro-4H-pyrrolo[3,4-d][1,3]thiazol-4-one] | 21 | – | 33 | 360 | –

Next, values leading:

Row | IC50 [1] [nM] | IC50 [2] [nM] | Kd (mutant MGL) [nM] | activity at 1 µM (MGL) [%] | activity at 10 µM (MGL) [%] | Compound
11 | 13 | 7 | 143 | 148 | – | O=C(NC1CN(C2CN(C(=O)c3ccc4nc(-c5ccccc5)sc4c3)C2)C1)c1nccs1 [Cpd 4, N-{1′-[(2-Phenyl-1,3-benzothiazol-6-yl)carbonyl]-1,3′-biazetidin-3-yl}-1,3-thiazole-2-carboxamide]
12 | < 5 | 10 | 10 | 243 | – | O=C(NC1CN(C2CN(C(=O)c3cc4ccc(C(F)(F)F)cc4s3)C2)C1)c1nccs1 [Cpd 7, N-(1′-{[6-(Trifluoromethyl)-1-benzothiophen-2-yl]carbonyl}-1,3′-biazetidin-3-yl)-1,3-thiazole-2-carboxamide]
13 | 506 | 13 | 14 | 193 | 160 | O=C(NC1CN(C2CN(C(=O)c3ccc(-c4ccc(C(F)(F)F)s4)cc3)C2)C1)c1nccs1 [Cpd 9, N-[1′-({4-[5-(Trifluoromethyl)thiophen-2-yl]phenyl}carbonyl)-1,3′-biazetidin-3-yl]-1,3-thiazole-2-carboxamide]
14 | < 5 | 18 | 51 | 215 | 557 | O=C(NC1CN(C2CN(C(=O)c3ccc(-c4ccc(C(F)(F)F)cc4)cc3)C2)C1)c1nccs1 [Cpd 12, N-(1′-{[4′-(Trifluoromethyl)biphenyl-4-yl]carbonyl}-1,3′-biazetidin-3-yl)-1,3-thiazole-2-carboxamide]
15 | < 5 | 19 | 50 | 441 | – | O=C(NC1CN(C2CN(C(=O)c3ccc4c(ccn4-c4ccccc4)c3)C2)C1)c1nccs1 [Cpd 13, N-{1′-[(1-Phenyl-1H-indol-5-yl)carbonyl]-1,3′-biazetidin-3-yl}-1,3-thiazole-2-carboxamide]
16 | < 5 | < 5 | 73.4 | 291 | – | O=C(NC1CN(C2CN(C(=O)c3ccc4c(cnn4-c4ccccc4)c3)C2)C1)c1nccs1 [Cpd 52, N-{1′-[(1-Phenyl-1H-indazol-5-yl)carbonyl]-1,3′-biazetidin-3-yl}-1,3-thiazole-2-carboxamide]
17 | < 5 | – | 20 | 253 | – | O=C(NC1CN(C2CN(C(=O)c3ccc(-c4cccc(C(F)(F)F)c4)cc3F)C2)C1)c1nccs1 [Cpd 64, N-(1′-{[3-Fluoro-3′-(trifluoromethyl)biphenyl-4-yl]carbonyl}-1,3′-biazetidin-3-yl)-1,3-thiazole-2-carboxamide]
